Measured values: patent publication US6900318B1, “1,4,5,6-tetrahydropyrimidine derivative as a vitronectin inhibitor” (Aventis Pharma Deutscland GmbH, priority 1999, dated 2005)

Test system: thyroparathyroidectomized (TPTX) rats
Assay: PTH-induced hypercalcemia in the TPTX rat model of bone resorption
Type: in vivo
Conditions: PTH treated TPTX male Sprague Dawley rats; perorally twice at 10 mg/kg (time 0 and 3 h after start of PTH infusion); serum at 6 hours
Excerpt: 9) Pharmacological Testing: PTH-Induced Hypercalcemia in the TPTX Rat Model of Bone Resorption
In this in vivo model a stimulation of bone resorption is induced in thyroparathyroidectomized (TPTX) rats by the infusion of parathyroid hormone (PTH). The changes in bone resorption are monitored by measuring the serum calcium concentration which is directly related to the extent of bone resorption.
Male Sprague Dawley rats (OFA-IFFA CREDO, France) weighting 150-200 g were thyroparathyroidectomized by the supplier. The rats were allowed free access to a standard commercial pelleted diet containing 7 g Ca/kg (UAR) and Eau de Volvic water. The success of thyroparathyroidectomy was tested by measuring serum calcium concentrations 8 days after operation in overnight fasted animals. Rats were considered as TPTX when the serum calcium level was <80 mg/l.
For treatment with PTH, rat PTH(1-34) (Bachem) was dissolved in 0.15 M sodium chloride solution containing 2% Cys-HCl and delivered via osmotic minipumps (ALZET 2001 D) at 200 pmol/kg/h. […]
Serum total calcium concentrations (=calcemia) were measured […] (Ciba-Corning) using a IEMS Labsystems microplate reader at 540 nm. The differences between the mean values of calcemia in the groups were analysed for variance and by Dunnett's test. The activity of the test compound was calculated as % effect according to the formula: [formula]

CCOC(=O)[C@H](CNC(=O)c1ccc(CCC(=O)NC2=NCCCN2)cc1)NS(=O)(=O)c1cccc2ccccc12.O=C(O)/C=C/C(=O)O [compound of formula I, ethyl (2S)-2-(naphthalene-1-sulfonylamino)-3-(4-(2-(1,4,5,6-tetrahydropyrimidin-2-ylcarbamoyl)ethyl)benzoylamino)propionate hemifumarate]
% effect on serum total calcium concentration (calcemia): −45%
